According to patent publication US4902799A, “Bicyclic alkoxy- and alkylthio-substituted aminoalcohols” (Maggioni-Winthrop S.p.A., priority 1985, dated 1990):
Where two headings read alike, the source gives them in different places. Each block holds one compound with its values, some of them ahead of it.

Experiments:
male mice = assay: Anti-hypoxic activity (gasping time after decapitation); assay type: in vivo; settings: Mus musculus, po, 100 mg/kg/p.o., read-out: Gasping time, % diff. from control
Normolipemic rats = assay: Hypolipemic activity in normolipemic rats; assay type: in vivo, rat (Sprague Dawley Nos male rats); settings: for hypolipemic activity (in words): oral
toxic adrenaline doses = assay: animal or person; assay type: in vivo, mouse (male mice CrI:CD 1(CR) BR); settings: Mus musculus, po, 24 h, read-out: PD50 (50% protective dose)
platelet aggregation = assay: Collagen-induced platelet aggregation ex vivo; assay type: in vivo, rat
[1] = tested on: SH rats (spontaneously hypertensive rats); assay: Anti-hypertensive activity in spontaneously hypertensive rats, tail artery plethysmography; assay type: in vivo, rat; settings: SHR
Procedure: The anti-hypertensive activity was tested on groups of 5 SH rats (spontaneously hypertensive rats) weighing 200±10 g, fasting for 18 hrs and treated orally with the invention compounds suspended in 2.5% gum arabic.
Changes in blood pressure (mm Hg) before (T=0) and after treatment (2, 4 and 6 hrs) were measured according to the method of tail artery plethysmography reported in "Spontaneously hypertensive rats (SHR): Guidlines for breeding, care and use", SHR Conference, 1976, page 11.
The arterial pressure before the treatment was 210±10 mmHg.

[2] = molecular target: alpha1-adrenergic receptors; settings: (a) Qian et al. 1983 for Tibalosine; (b) Van Zwieten et al. 1985 for Urapidil; cited from earlier work
[3] = molecular target: T1, alpha2-adrenergic receptors (Rattus norvegicus, UniProt P22909); settings: (a) Qian et al. 1983 for Tibalosine; (b) Van Zwieten et al. 1985 for Urapidil; cited from earlier work
T1 construct: from tissue; host or cells: rat brain membranes
T1 sequence (P22909 1-465): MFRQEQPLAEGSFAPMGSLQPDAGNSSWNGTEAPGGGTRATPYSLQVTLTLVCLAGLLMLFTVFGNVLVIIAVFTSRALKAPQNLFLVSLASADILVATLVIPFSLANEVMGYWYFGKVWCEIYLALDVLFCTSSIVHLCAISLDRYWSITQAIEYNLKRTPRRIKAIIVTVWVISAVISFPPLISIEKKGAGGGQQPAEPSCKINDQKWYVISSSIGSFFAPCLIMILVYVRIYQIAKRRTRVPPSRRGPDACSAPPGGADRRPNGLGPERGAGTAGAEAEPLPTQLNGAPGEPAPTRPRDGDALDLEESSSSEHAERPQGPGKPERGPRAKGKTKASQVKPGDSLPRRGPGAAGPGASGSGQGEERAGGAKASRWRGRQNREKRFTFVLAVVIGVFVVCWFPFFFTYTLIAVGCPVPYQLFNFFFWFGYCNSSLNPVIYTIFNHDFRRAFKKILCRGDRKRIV

[4] = 0.15 mM/kg oral, blood 1 hr after treatment, collagen 2-4 mcg/ml

SMILES: COc1ccc2cc(C(O)C(C)N3CCN(c4ccccc4OC)CC3)ccc2c1 (stereo not drawn) [MG 38098, threo-2-[4-(2-Methoxyphenyl)-1-piperazinyl]-1-(6-methoxy-2-naphthyl)-propanol]
change in vivo at 100 mg/kg (male mice; pretreatment 90 min): 41.1%

Liver Weight, % different from control (Normolipemic rats; 0.023 mM/kg/p.o. × 4 days): +5.5%
Liver Weight, % different from control (Normolipemic rats; 0.046 mM/kg/p.o. × 4 days): +8.0%
Liver Weight, % different from control (Normolipemic rats; 0.185 mM/kg/p.o. × 4 days): +4.8%
SMILES: COc1ccc2cc(C(O)C(C)N3CCC(NC(=O)c4ccccc4)CC3)ccc2c1 (centres unmarked) [MG 38105, 2-(4-Benzamido-1-piperidinyl)-1-(6-methoxy-2-naphthyl)-propanol]
CHOL, % different from control (Normolipemic rats; 0.023 mM/kg/p.o. × 4 days): -35.7%
CHOL-HDL, % different from control (Normolipemic rats; 0.023 mM/kg/p.o. × 4 days): -13.3%
TG, % different from control (Normolipemic rats; 0.023 mM/kg/p.o. × 4 days): -36.2%
CHOL, % different from control (Normolipemic rats; 0.046 mM/kg/p.o. × 4 days): -45.8%
CHOL-HDL, % different from control (Normolipemic rats; 0.046 mM/kg/p.o. × 4 days): +1.3%
TG, % different from control (Normolipemic rats; 0.046 mM/kg/p.o. × 4 days): -63.8%
CHOL, % different from control (Normolipemic rats; 0.185 mM/kg/p.o. × 4 days): -96.6%
CHOL-HDL, % different from control (Normolipemic rats; 0.185 mM/kg/p.o. × 4 days): +3.9%
TG, % different from control (Normolipemic rats; 0.185 mM/kg/p.o. × 4 days): -70.6%
hypolipemic activity (in words) (Normolipemic rats): good activity at very low doses

Liver Weight, % different from control (Normolipemic rats; 0.023 mM/kg/p.o. × 4 days): -1.6%
Liver Weight, % different from control (Normolipemic rats; 0.046 mM/kg/p.o. × 4 days): +8.6%
Liver Weight, % different from control (Normolipemic rats; 0.185 mM/kg/p.o. × 4 days): +3.3%
SMILES: COc1ccc2cc(C(O)C(C)N3CCC(NC(=O)c4ccccc4)CC3)ccc2c1 (centres unmarked) [MG 38127, 2-(4-Benzamido-1-piperidinyl)-1-(6-methoxy-2-naphthyl)-propanol]
CHOL, % different from control (Normolipemic rats; 0.023 mM/kg/p.o. × 4 days): -30.2%
CHOL-HDL, % different from control (Normolipemic rats; 0.023 mM/kg/p.o. × 4 days): +7.6%
TG, % different from control (Normolipemic rats; 0.023 mM/kg/p.o. × 4 days): -41.4%
CHOL, % different from control (Normolipemic rats; 0.046 mM/kg/p.o. × 4 days): -51.2%
CHOL-HDL, % different from control (Normolipemic rats; 0.046 mM/kg/p.o. × 4 days): -1.8%
TG, % different from control (Normolipemic rats; 0.046 mM/kg/p.o. × 4 days): -66.3%
CHOL, % different from control (Normolipemic rats; 0.185 mM/kg/p.o. × 4 days): -59.1%
CHOL-HDL, % different from control (Normolipemic rats; 0.185 mM/kg/p.o. × 4 days): -19.8%
TG, % different from control (Normolipemic rats; 0.185 mM/kg/p.o. × 4 days): -81.7%
hypolipemic activity (in words) (Normolipemic rats): good activity at very low doses

SMILES: Cc1ccc(N(CC2=NCCN2)c2cccc(O)c2)cc1 [Phentolamine]
ED50 (toxic adrenaline doses): 8 mg/kg

SMILES: COc1cc2nc(N3CCN(C(=O)c4ccco4)CC3)nc(N)c2cc1OC [Prazosin]
ED50 (toxic adrenaline doses): 0.7 mg/kg

Liver Weight, % different from control (Normolipemic rats; 0.205 mM/kg/p.o. × 8 days): +4.0%
Liver Weight, % different from control (Normolipemic rats; 0.82 mM/kg/p.o. × 4 days): ~ 0%
SMILES: CC(C)(Sc1cc(C(C)(C)C)c(O)c(C(C)(C)C)c1)Sc1cc(C(C)(C)C)c(O)c(C(C)(C)C)c1 [Probucol, reference compound]
CHOL, % different from control (Normolipemic rats; 0.205 mM/kg/p.o. × 8 days): -25.0%
CHOL-HDL, % different from control (Normolipemic rats; 0.205 mM/kg/p.o. × 8 days): -26%
TG, % different from control (Normolipemic rats; 0.205 mM/kg/p.o. × 8 days): -28.0%
CHOL, % different from control (Normolipemic rats; 0.82 mM/kg/p.o. × 4 days): ~ 0%
CHOL-HDL, % different from control (Normolipemic rats; 0.82 mM/kg/p.o. × 4 days): +18.5%
TG, % different from control (Normolipemic rats; 0.82 mM/kg/p.o. × 4 days): ~ 0%
hypolipemic activity (in words) (Normolipemic rats): moderate and is noted only after prolonged treatment (8 days)

SMILES: O=C1C(CC[S+]([O-])c2ccccc2)C(=O)N(c2ccccc2)N1c1ccccc1 (centres unmarked) [Sulfinpyrazone, reference compound]
% Inhibition, Aggregation rate (platelet aggregation; rat, in vivo, po): 89.0%
% Inhibition, Maximum aggregation (platelet aggregation; rat, in vivo, po): 92.5%

SMILES: CCCCCCCCNC(C)C(O)c1ccc(SC(C)C)cc1 (centres unmarked) [Suloctidil, reference compound]
% Inhibition, Aggregation rate (platelet aggregation; [4]): 57.5%
% Inhibition, Maximum aggregation (platelet aggregation; [4]): 69.0%
change in vivo at 100 mg/kg (male mice; pretreatment 45 min): 27.5%
change in vivo at 100 mg/kg (male mice; pretreatment 90 min): 11.7%

SMILES: CC(NCCCCc1ccccc1)C(O)c1ccc2c(c1)CCS2 (centres unmarked) [Tibalosine]
Max. changes in systolic pressure ([1]; 1 mg/kg p.o.): ~ 0 mmHg
Max. changes in systolic pressure ([1]; 5 mg/kg p.o.): -13.2 mmHg
Max. changes in systolic pressure ([1]; 15 mg/kg p.o.): -67 mmHg
IC50 [2]: 0.4 µM
IC50 [3]: 1000 µM

SMILES: Clc1ccccc1CN1CCc2sccc2C1 [Ticlopidine, reference compound]
% Inhibition, Aggregation rate (platelet aggregation; [4]): 56.0%
% Inhibition, Maximum aggregation (platelet aggregation; [4]): 70.0%

SMILES: COc1ccccc1N1CCN(CCCNc2cc(=O)n(C)c(=O)n2C)CC1 [Urapidil]
Max. changes in systolic pressure ([1]; 1 mg/kg p.o.): -16 mmHg
Max. changes in systolic pressure ([1]; 5 mg/kg p.o.): -47 mmHg
Max. changes in systolic pressure ([1]; 15 mg/kg p.o.): -72.4 mmHg
IC50 [2]: 0.8 µM
IC50 [3]: 14 µM
